Source: ChEMBL document CHEMBL3826906, “Synthesis of MR-49, a deiodinated analog of tetraiodothyroacetic acid (tetrac), as a novel pro-angiogenesis modulator” (2016)

Experiments:
Mus musculus [1] = experiment: Pro-angiogenic activity in Balb/c mouse subcutaneously implanted 4 times with 10 ug/implant compound treated mouse EHS-derived matrigel assessed as FGF2-induced matrigel plug vascularization by measuring increase in hemoglobin level measured after 7 to 10 days by spectrophotometric analysis relative to control; type: functional
Mus musculus [2] = experiment: Antiangiogenic activity in Balb/c mouse subcutaneously implanted 4 times with 10 ug/implant compound treated mouse EHS-derived matrigel assessed as inhibition of FGF2-induced matrigel plug vascularization by measuring decrease in hemoglobin level measured after 7 to 10 days by spectrophotometric analysis relative to control; type: functional

Compound | fold change (FC) (Mus musculus [1]) | inhibition (INH) (Mus musculus [2])
O=C(O)Cc1cc(I)c(Oc2ccc(O)cc2)c(I)c1 | 1.6 | –
O=C(O)Cc1cc(I)c(Oc2cc(I)c(O)c(I)c2)c(I)c1 [TETRAC] | – | 50%
N[C@@H](Cc1cc(I)c(Oc2ccc(O)c(I)c2)c(I)c1)C(=O)O [LIOTHYRONINE] | 1.4 | –
